Values quoted from earlier work in patent US20110212189A1, “GASTRORETENTIVE ORAL HIGH DOSE ZINC PREPARATIONS” (ADEONA PHARMACEUTICALS, INC., priority 2009, published 2011).

Conditions: 50 mg elemental zinc taken with food

For `O=S(=O)([O-])[O-].[Zn+2]` [zinc sulphate], the nausea/vomiting effects is given as “same effects have been observed”.
